{
  "source": "ChEMBL document CHEMBL1201862",
  "about": "“PubChem BioAssay data set” (2004)",
  "key": {"[1]": {"molecular_target": "Disintegrin and metalloproteinase domain-containing protein 17 (Homo sapiens, UniProt P78536)", "sequence (P78536 whole entry, the tested form may be a part)": "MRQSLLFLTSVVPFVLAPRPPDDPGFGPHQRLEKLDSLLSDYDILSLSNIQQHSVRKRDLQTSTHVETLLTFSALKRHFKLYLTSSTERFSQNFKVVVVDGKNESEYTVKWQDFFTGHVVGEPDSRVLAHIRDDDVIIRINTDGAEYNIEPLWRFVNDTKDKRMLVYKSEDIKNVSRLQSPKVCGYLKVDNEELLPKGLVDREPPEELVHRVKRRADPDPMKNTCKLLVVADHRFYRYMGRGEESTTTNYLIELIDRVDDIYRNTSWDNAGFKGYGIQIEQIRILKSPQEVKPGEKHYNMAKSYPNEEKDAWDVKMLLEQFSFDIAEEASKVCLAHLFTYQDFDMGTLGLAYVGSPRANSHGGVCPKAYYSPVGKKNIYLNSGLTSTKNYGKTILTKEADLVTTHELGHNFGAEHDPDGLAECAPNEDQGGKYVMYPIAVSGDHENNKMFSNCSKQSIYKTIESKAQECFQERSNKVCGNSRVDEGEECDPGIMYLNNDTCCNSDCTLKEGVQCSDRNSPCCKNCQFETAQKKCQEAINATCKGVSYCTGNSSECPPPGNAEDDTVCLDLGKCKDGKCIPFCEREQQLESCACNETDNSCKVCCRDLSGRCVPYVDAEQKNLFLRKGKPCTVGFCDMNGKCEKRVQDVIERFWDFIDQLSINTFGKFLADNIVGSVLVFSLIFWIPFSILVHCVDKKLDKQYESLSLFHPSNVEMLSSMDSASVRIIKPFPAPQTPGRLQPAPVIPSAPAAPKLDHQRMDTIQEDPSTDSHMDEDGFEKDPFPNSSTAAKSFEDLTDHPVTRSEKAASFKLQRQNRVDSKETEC", "assay": "ADAM17 protease inhibitors, dose response, counter-screen for ADAM10 exosite inhibitor project, biochemical, quenched FRET substrate (AID 743253)"}, "[2]": {"molecular_target": "T1, Streptokinase A (Streptococcus pyogenes serotype M1, UniProt P10520)", "T1 sequence (P10520 whole entry)": "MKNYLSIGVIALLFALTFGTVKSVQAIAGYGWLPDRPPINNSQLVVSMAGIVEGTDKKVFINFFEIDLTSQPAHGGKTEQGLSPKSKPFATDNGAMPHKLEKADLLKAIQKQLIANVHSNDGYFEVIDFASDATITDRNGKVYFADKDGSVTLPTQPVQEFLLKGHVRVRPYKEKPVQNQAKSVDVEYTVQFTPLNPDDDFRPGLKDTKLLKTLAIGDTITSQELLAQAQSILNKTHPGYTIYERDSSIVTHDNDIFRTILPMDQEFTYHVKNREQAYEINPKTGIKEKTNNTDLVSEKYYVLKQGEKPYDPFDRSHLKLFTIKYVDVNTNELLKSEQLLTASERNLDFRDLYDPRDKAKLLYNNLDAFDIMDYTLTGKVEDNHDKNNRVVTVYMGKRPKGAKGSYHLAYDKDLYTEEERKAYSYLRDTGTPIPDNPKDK", "assay": "S. pyogenes streptokinase expression inhibitors, potency, dose response, plasminogen activation absorbance, OD405 (AID 1914);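 further: secreted streptokinase activity via plasminogen activation per viability signal from cell pellet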", "assay_type": "functional, Streptococcus pyogenes M1 GAS"}, "[3]": {"system": "Streptococcus sp. 'group A'", "assay": "growth inhibition of control SK(-) GAS strain, dose response, counter-screen for streptokinase expression inhibitor project, luminescence, kanamycin, BacTiterGlo, confirmation (AID 1900)", "assay_type": "functional, organism-based"}, "[4]": {"system": "Streptococcus", "assay": "Group A Streptococcus viability loss, dose response, counter-screen for streptokinase expression inhibitor project, luminescence, BacTiterGlo (AID 1915);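 further: potency for reduction of bacterial viability or growth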", "assay_type": "functional, organism-based"}, "[5]": {"molecular_target": "Transthyretin (Homo sapiens, UniProt P02766)", "assay": "Luminescence-based cell-based high throughput dose response assay to identify activators of Transthyretin (TTR) transcription.", "assay_type": "functional"}, "[6]": {"assay": "Late stage counterscreen for inhibitors of Trypanosoma brucei methionyl tRNA synthetase (MetRS): Luminescence-based cell-based high throughput dose response assay to identify compounds that are cytotoxic to Jurkat human T lymphocyte cells.", "assay_type": "functional"}, "[7]": {"molecular_target": "T2, Methionyl-tRNA synthetase, putative (Trypanosoma brucei brucei, UniProt Q38C91)", "T2 sequence (Q38C91 whole entry)": "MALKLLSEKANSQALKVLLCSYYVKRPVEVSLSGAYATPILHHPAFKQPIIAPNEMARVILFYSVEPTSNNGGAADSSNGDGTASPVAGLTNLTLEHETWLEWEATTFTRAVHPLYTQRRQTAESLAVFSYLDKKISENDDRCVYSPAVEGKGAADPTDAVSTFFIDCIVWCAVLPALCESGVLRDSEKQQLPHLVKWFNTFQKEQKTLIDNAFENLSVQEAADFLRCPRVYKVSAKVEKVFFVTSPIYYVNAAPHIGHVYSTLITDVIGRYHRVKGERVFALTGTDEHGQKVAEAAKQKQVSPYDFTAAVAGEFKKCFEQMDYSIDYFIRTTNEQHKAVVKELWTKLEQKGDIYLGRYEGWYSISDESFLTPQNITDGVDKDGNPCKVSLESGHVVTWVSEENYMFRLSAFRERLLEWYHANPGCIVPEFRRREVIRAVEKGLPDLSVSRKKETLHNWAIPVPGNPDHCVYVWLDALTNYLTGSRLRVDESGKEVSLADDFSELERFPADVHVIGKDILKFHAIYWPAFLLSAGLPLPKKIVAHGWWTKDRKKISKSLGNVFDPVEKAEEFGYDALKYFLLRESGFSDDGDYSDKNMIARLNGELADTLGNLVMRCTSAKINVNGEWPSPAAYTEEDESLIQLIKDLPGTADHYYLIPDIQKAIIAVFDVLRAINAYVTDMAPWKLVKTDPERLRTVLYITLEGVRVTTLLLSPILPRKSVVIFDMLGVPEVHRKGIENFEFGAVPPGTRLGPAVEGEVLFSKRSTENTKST", "assay_type": "functional, Trypanosoma brucei brucei strain 927/4 GUTat10.1"}, "[8]": {"molecular_target": "T2, Methionyl-tRNA synthetase, putative", "assay_type": "functional, Trypanosoma brucei brucei strain 927/4 GUTat10.1", "remark": "listed apart in the source"}, "[9]": {"assay": "Counterscreen for inhibitors of Trypanosoma brucei methionyl tRNA synthetase (MetRS): Luminescence-based cell-based high throughput dose response assay to identify compounds that are cytotoxic to Jurkat human T lymphocyte cells.", "assay_type": "functional"}, "[10]": {"molecular_target": "Heat shock protein HSP 90-alpha (Homo sapiens, UniProt P07900)", "assay": "Luminescence-based dose response biochemical high throughput screening assay for inhibitors of the Heat Shock Protein 90 (HSP90). [Related pubchem assays: 1831 (Summary AID.), 1846 (Confirmation screen.), 1789 (Primary screen.)]"}, "[11]": {"molecular_target": "T3, Corticotropin-releasing factor receptor 2/Corticotropin-releasing factor-binding protein (Homo sapiens, UniProt P24387+Q13324)", "T3 sequence (Q13324 whole entry)": "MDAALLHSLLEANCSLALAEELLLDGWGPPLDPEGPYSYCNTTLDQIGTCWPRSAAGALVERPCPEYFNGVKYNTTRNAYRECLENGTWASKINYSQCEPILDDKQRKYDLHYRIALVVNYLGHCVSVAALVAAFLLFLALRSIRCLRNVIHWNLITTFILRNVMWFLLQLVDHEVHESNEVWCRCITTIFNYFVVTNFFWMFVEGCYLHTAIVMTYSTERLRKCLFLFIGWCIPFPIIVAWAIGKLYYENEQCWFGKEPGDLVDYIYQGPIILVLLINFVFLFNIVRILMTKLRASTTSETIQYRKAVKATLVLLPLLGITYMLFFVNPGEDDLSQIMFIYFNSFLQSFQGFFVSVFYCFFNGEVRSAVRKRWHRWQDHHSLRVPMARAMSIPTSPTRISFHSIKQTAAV", "T3 sequence (P24387 whole entry)": "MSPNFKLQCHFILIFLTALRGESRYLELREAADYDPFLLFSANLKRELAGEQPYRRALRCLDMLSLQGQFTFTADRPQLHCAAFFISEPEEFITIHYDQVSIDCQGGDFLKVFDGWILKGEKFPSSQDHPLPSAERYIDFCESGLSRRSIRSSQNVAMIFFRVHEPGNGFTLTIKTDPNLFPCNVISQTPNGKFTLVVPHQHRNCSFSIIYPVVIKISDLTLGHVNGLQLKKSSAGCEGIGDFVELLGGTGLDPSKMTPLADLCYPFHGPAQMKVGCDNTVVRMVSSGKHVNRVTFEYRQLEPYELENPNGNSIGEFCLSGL", "assay": "activators of CRF receptor 2 with binding protein – uHTS hits, confirmation (AID 602473)", "assay_type": "functional", "conditions": "read-out: EC50_Mean"}, "[12]": {"assay": "HEK293 Cytotoxicity Assay Measured in Cell-Based System Using Plate Reader - 7071-01_Inhibitor_Dose_CherryPick_Activity_Set2.", "assay_type": "functional"}, "[13]": {"molecular_target": "T3, Corticotropin-releasing factor receptor 2/Corticotropin-releasing factor-binding protein", "assay": "Dose Response confirmation of uHTS hits for small molecule antagonists of the CRF-binding protein and CRF-R2 receptor complex.", "assay_type": "functional", "conditions": "read-out: IC50_Mean"}, "[14]": {"molecular_target": "Cytochrome P450 3A4 (Homo sapiens, UniProt P08684)", "sequence (P08684 whole entry)": "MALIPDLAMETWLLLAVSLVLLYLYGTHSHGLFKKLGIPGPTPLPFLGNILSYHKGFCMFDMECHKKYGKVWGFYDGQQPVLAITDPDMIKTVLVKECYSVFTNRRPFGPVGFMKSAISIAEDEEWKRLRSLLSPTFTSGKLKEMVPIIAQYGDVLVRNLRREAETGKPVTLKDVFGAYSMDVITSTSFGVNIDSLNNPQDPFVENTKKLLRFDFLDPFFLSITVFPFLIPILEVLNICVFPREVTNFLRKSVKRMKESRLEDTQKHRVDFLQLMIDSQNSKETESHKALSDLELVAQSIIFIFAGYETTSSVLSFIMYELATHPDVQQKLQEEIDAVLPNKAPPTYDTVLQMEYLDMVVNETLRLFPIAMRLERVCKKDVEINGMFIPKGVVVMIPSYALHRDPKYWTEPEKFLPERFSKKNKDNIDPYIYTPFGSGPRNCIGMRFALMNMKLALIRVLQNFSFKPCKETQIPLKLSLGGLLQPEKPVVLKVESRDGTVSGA"}, "[15]": {"molecular_target": "Prothrombin (Homo sapiens, UniProt P00734)", "assay": "Thrombin 1536 HTS Dose Response Confirmation. [Related pubchem assays: 1046 (Thrombin 1536 HTS; hits were confirmed in this assay)]", "assay_type": "functional"}, "[16]": {"assay": "CRF-BP/CRF-R2 complex antagonists, dose response, cell-based, uHTS hits, 384-well (AID 651639)", "assay_type": "functional, Homo sapiens", "conditions": "read-out: IC50_Mean"}, "[17]": {"system": "HEK293", "assay": "HEK293T cell cytotoxicity, dose response, cytotoxicity control, ATP luminescence, cherry-pick samples (AID 687005);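 further: cells exposed to compound for 48 hours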", "assay_type": "functional, cell-based", "conditions": "Homo sapiens"}, "[18]": {"molecular_target": "Aryl hydrocarbon receptor (Homo sapiens, UniProt P35869)", "sequence (P35869 whole entry)": "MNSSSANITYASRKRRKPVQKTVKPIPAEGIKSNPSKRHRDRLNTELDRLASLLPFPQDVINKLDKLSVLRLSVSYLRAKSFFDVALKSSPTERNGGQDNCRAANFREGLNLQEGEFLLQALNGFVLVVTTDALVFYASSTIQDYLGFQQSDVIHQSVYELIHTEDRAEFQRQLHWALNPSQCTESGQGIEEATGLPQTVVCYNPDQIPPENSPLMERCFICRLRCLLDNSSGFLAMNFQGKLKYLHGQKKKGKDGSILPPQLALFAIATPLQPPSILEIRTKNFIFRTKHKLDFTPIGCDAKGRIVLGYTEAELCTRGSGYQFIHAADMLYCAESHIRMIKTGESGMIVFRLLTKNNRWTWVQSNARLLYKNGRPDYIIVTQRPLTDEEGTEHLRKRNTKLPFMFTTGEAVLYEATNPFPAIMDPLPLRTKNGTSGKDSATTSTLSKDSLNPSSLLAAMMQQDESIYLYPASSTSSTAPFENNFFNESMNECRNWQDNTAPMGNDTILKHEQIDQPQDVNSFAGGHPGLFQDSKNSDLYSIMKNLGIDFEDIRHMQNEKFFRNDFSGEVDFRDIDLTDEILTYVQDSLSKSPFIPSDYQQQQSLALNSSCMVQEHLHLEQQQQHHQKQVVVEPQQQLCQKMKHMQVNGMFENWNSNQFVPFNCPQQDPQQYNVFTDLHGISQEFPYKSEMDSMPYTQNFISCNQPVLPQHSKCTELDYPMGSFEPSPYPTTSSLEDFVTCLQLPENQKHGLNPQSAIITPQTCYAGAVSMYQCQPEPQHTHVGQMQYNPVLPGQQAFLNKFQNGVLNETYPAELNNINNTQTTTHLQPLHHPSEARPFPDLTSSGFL", "assay": "Luminescence-based cell-based high throughput dose response assay for activators of the Aryl Hydrocarbon Receptor (AHR). [Related pubchem assays: 2796 (Primary screen (AHR activators in singlicate)), 2845 (Confirmation screen (AHR activators in triplicate)), 434939 (Counterscreen (PXR activators in triplicate)), 2804 (Summary (AHR activators))]", "assay_type": "ADME"}, "[19]": {"assay": "MC4R antagonists, dose response, counter-screen for LGR2 antagonist project, cell-based, plate reader, cherry pick (AID 743444);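 further: transfected HEK 293 cells stimulated with alpha-MSH peptide; potency of inhibitors of the alpha-MSH evoked signal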", "assay_type": "functional"}, "[20]": {"assay": "microbe, parasite or virus in culture", "assay_type": "functional", "conditions": "Mycobacterium tuberculosis"}, "[21]": {"assay": "LGR2 antagonists, dose response, cell-based, HEK293, CRE-luciferase reporter, cherry pick, set 2 (AID 743343);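 further: transfected cells were stimulated with diluted bursicon conditioned medium after compound addition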", "assay_type": "functional"}, "[22]": {"assay": "A549 cell cytotoxicity, dose response, cytotoxicity control, plate reader, cherry-pick, antagonist series (AID 743412)", "assay_type": "functional, cell-based"}, "[23]": {"assay": "HepG2 cell cytotoxicity, dose response, cytotoxicity control, plate reader, cherry-pick, antagonist series (AID 743416)", "assay_type": "functional, cell-based"}, "[24]": {"molecular_target": "T4, Microphthalmia-associated transcription factor (Homo sapiens, UniProt O75030)", "T4 sequence (O75030 whole entry)": "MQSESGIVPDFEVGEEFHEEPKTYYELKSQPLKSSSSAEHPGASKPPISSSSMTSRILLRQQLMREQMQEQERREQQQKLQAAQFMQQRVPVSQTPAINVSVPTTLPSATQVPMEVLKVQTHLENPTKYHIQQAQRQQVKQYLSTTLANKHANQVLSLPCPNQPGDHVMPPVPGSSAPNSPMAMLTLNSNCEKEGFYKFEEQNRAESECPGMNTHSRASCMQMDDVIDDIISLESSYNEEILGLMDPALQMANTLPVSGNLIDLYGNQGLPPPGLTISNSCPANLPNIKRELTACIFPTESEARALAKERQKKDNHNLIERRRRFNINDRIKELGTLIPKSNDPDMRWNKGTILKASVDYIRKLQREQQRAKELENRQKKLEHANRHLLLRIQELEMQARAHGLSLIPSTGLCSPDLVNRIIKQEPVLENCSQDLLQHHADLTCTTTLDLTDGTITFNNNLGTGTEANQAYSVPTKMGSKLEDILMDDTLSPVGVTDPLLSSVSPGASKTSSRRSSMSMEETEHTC", "assay": "TRPM1 promoter luciferase signal decrease, dose response, MITF inhibitor project, cell-based, SK-MEL-5, cherry-picked, set 3 (AID 493073)", "assay_type": "functional"}, "[25]": {"assay": "HEK293 cell cytotoxicity, dose response, cytotoxicity control, plate reader, cherry-picked samples (AID 743446)", "assay_type": "functional, cell-based"}},
  "note": "The source made the active and inactive calls.",
  "data": [
    {"smiles": "O=[N+]([O-])c1cccnc1N1CCC(c2cc(-c3ccc(Cl)cc3)[nH]n2)CC1", "values": [
      {"measurement": "IC50", "setting": "[1]", "result": "> 69.5 µM (inactive)"},
      {"measurement": "EC50", "setting": "[2]", "result": "33.3 µM (active)"},
      {"measurement": "EC50", "setting": "[3]", "result": "5.14 µM (active)"},
      {"measurement": "EC50", "setting": "[4]", "result": "9.6 µM (active)"}
    ]},
    {"smiles": "COc1ccc(-c2noc(-c3cccs3)n2)cc1OC", "values": [
      {"measurement": "EC50", "setting": "[5]", "result": "> 167 µM (inactive)"}
    ]},
    {"smiles": "O=C(NCc1nc2ccccc2[nH]1)C1=C[C@@H](C2CC2)C[C@@H](OCc2ccc(CO)cc2)O1", "values": [
      {"measurement": "IC50", "setting": "[6]", "result": "> 83.3 µM (inactive)"},
      {"measurement": "IC50", "setting": "[7]", "result": "1.62 µM (active)"},
      {"measurement": "IC50", "setting": "[8]", "result": "0.811 µM (active)"},
      {"measurement": "IC50", "setting": "[9]", "result": "83.3 µM (inactive)"}
    ]},
    {"smiles": "Cc1ccc(C(=O)CSc2ccccc2C(=O)O)cc1", "values": [
      {"measurement": "IC50", "setting": "[10]", "result": "10.8 µM (not active)"}
    ]},
    {"smiles": "Cc1ccccc1-n1ncc2c(SCC(=O)N3c4ccccc4CC3C)ncnc21", "note": "(stereo not given)", "values": [
      {"measurement": "EC50", "setting": "[11]", "result": "> 53 µM (inactive)"},
      {"measurement": "AC50", "setting": "[12]", "result": "15.4 µM (active)"},
      {"measurement": "IC50", "setting": "[13]", "result": "11 µM (active)"},
      {"measurement": "AC50", "setting": "[14]", "result": "inconclusive"},
      {"measurement": "IC50", "setting": "[15]", "result": "> 50 µM (not active)"},
      {"measurement": "IC50", "setting": "[16]", "result": "11.7 µM (active)"},
      {"measurement": "AC50", "setting": "[17]", "result": "15.4 µM (active)"}
    ]},
    {"smiles": "[O-][n+]1onc2c3cc(-c4ccccc4)nnc3ccc21", "values": [
      {"measurement": "EC50", "setting": "[18]", "result": "1.48 µM (active)"}
    ]},
    {"smiles": "CC1(C)CC(NC(=O)c2ccc(Cl)c(S(=O)(=O)N(Cc3ccccc3)c3ccccc3)c2)CC(C)(C)N1", "values": [
      {"measurement": "AC50", "setting": "[19]", "result": "29.4 µM (active)"},
      {"measurement": "CC50", "setting": "[20]", "result": "12.7 µM (active)"},
      {"measurement": "AC50", "setting": "[21]", "result": "19.4 µM (active)"},
      {"measurement": "AC50", "setting": "[22]", "result": "7.96 µM (active)"},
      {"measurement": "AC50", "setting": "[23]", "result": "8.14 µM (active)"},
      {"measurement": "AC50", "setting": "[24]", "result": "10.3 µM (active)"},
      {"measurement": "AC50", "setting": "[25]", "result": "15.7 µM (active)"}
    ]}
  ]
}
